# Values quoted from earlier work as cited in US20150335678A1, “METHOD OF ACTIVATING STEM CELLS IN AN ANIMAL AND THE USE OF CHLORINE DIOXIDE FOR PREPARING MEDICINES FOR ACTIVATING STEM CELLS IN AN ANIMAL” (priority 2012, published 2015).
# Like-named read-outs stand apart in the source and are kept apart here.
# Tests used:
# [1] = system: rat; conditions: cited from earlier work
# [2] = system: mouse; conditions: mouse per os; cited from earlier work
molecule,measurement,setting,value
[Na+].[O-][Cl+][O-] [NaClO2],accumulative toxicity classification of aqueous solution,"[1]; rat, in vivo",non-obvious accumulative toxic
same,toxicity classification of aqueous solution,"[1]; rat, in vivo",actually non-toxic
[Na+].[O-][Cl+2]([O-])[O-] [NaClO3],accumulative toxicity classification of aqueous solution,"[1]; ClO2 276.5 mg/L, NaClO2 200 mg/L, NaClO3",non-obvious accumulative toxic
same,toxicity classification of aqueous solution,"[1]; ClO2 276.5 mg/L, NaClO2 and NaClO3 200 mg/L, ClO2 mixed solution total concentration 553 mg/L",actually non-toxic
stable chlorine dioxide,LD50,[2],> 10000 mg/kg
